Counter-ions that a name gives are not always drawn.
How the values were obtained:
hNav1.7 [1] = molecular target: T1, hNav1.7 (Homo sapiens (Human), UniProt Q15858); assay: Patch voltage clamp electrophysiology assay (EP), Syncropatch 384PE, CHO cells expressing Nav1.7; assay type: cell-based; conditions: holding potential -50 mV; […] compound incubation; read-out: EP_SP hNav1.7 (Ex. 243B) IC50
Method: Electrophysiological Assay (EP) (In Vitro Assay)
The following voltage clamp electrophysiology studies were performed on representative compounds using cells heterologously expressing Nav1.7 or Nav1.5 channels. cDNAs for Nav1.7 (NM_002977) and Nav1.5 (AC137587) were stably expressed in Chinese Hamstr Ovary (CHO) cells and CHL (Chinese Hamster Lung) cells respectively. […] Internal solution consists of (in mM): 110 […], 10 […], 20 EGTA, and 10 Hepes (pH adjusted to 7.2); and external solution contains (in mM): 60 NMDG, 80 NaCl, 4 KCl, 1 MgCl2, 2 CaCl2, 2 D-Glucose monohydrate, 10 Hepes (pH adjusted to 7.4 with NaOH).
The chip is moved into the measuring head and the instrument primes the chip with external and internal solutions. […] cells are added to the chip from a cell hotel, and a negative pressure of −50 mBar is applied to form a seal. Following treatment with seal enhancer solution and wash-off with external solution, negative pressure of −250 mbar is applied for 1 second to achieve the whole-cell configuration, followed by three washing steps in external solution. 20 μl of compounds is added to 40 μl in each well (1:3 dilution of compounds), and after mixing, 20 μl is removed so the volume is retained at 40 μl.
For voltage protocol, an holding potential of −50 mV is applied during the whole experiment. A depolarizing step is applied to −10 mV for 10 ms, followed by a hyperpolarization step to −150 mV for 20 ms to allow channel recovery from inactivation. A second depolarizing step is applied from −150 mV to −10 mV for 10 ms, where currents were measured to derive blocking effects of compounds. Inhibition is determined based on 7.5 min of compound incubation.
Target sequence in this assay (Q15858 other isoform, or with tags, fused parts or gaps): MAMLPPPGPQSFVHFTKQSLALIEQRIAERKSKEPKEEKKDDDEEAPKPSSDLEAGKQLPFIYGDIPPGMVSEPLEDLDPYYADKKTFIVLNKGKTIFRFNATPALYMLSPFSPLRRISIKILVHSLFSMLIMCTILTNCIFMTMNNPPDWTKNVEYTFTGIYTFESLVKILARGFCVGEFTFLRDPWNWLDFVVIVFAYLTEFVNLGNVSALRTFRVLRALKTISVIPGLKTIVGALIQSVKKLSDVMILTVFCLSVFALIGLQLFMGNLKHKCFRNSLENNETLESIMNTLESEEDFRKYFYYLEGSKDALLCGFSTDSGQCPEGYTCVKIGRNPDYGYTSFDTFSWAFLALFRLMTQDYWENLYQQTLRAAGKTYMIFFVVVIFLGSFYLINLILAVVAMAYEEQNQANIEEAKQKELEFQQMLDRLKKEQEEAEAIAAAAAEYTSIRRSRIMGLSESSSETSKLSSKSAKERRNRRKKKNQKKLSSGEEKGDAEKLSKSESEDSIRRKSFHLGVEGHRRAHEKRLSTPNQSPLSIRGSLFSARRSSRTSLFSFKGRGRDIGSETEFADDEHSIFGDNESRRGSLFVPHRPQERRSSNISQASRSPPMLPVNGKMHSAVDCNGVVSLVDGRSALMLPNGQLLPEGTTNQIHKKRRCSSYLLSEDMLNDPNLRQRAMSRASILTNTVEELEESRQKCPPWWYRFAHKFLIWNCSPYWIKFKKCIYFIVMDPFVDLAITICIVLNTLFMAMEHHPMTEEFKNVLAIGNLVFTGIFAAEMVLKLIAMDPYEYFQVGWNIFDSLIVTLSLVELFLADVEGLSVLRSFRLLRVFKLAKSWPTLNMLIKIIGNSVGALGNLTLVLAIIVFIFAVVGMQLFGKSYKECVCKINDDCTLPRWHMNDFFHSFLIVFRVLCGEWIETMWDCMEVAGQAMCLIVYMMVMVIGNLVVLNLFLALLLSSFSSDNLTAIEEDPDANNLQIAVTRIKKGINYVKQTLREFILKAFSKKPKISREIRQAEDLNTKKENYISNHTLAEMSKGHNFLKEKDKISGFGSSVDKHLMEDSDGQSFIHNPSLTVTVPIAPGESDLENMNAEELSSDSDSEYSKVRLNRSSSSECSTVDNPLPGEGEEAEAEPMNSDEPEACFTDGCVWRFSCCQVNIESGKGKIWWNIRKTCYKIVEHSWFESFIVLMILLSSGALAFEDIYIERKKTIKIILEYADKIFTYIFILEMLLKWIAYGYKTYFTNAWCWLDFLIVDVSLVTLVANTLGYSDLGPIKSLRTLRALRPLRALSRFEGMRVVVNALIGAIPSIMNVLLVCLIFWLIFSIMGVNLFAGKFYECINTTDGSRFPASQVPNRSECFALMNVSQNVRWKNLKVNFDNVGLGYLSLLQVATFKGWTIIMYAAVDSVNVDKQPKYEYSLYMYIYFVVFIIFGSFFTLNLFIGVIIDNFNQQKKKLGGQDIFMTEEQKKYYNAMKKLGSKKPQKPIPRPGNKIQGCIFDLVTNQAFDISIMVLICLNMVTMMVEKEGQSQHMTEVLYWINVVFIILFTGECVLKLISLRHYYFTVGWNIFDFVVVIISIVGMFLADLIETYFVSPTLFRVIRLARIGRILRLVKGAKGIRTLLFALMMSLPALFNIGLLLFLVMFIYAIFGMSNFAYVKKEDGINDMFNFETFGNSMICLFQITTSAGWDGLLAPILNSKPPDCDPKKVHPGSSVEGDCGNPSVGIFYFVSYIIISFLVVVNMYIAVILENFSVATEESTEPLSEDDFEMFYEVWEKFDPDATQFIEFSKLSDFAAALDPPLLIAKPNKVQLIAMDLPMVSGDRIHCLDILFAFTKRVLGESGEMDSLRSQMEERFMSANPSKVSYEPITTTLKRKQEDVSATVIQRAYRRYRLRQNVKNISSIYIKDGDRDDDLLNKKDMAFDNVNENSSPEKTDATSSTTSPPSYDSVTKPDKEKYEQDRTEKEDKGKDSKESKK

hNav1.7 [2] = molecular target: T1, hNav1.7; assay: Tritiated compound binding to membranes from cells expressing hNav1.7 and the β1 subunit, modified protocol (LBA, Ex. 243B); conditions: 300 pM [3H]compound, room temperature, read-out: Nav1.7 LBA (Ex. 243B) IC50
Target sequence in this assay (Q15858 whole entry, looked up): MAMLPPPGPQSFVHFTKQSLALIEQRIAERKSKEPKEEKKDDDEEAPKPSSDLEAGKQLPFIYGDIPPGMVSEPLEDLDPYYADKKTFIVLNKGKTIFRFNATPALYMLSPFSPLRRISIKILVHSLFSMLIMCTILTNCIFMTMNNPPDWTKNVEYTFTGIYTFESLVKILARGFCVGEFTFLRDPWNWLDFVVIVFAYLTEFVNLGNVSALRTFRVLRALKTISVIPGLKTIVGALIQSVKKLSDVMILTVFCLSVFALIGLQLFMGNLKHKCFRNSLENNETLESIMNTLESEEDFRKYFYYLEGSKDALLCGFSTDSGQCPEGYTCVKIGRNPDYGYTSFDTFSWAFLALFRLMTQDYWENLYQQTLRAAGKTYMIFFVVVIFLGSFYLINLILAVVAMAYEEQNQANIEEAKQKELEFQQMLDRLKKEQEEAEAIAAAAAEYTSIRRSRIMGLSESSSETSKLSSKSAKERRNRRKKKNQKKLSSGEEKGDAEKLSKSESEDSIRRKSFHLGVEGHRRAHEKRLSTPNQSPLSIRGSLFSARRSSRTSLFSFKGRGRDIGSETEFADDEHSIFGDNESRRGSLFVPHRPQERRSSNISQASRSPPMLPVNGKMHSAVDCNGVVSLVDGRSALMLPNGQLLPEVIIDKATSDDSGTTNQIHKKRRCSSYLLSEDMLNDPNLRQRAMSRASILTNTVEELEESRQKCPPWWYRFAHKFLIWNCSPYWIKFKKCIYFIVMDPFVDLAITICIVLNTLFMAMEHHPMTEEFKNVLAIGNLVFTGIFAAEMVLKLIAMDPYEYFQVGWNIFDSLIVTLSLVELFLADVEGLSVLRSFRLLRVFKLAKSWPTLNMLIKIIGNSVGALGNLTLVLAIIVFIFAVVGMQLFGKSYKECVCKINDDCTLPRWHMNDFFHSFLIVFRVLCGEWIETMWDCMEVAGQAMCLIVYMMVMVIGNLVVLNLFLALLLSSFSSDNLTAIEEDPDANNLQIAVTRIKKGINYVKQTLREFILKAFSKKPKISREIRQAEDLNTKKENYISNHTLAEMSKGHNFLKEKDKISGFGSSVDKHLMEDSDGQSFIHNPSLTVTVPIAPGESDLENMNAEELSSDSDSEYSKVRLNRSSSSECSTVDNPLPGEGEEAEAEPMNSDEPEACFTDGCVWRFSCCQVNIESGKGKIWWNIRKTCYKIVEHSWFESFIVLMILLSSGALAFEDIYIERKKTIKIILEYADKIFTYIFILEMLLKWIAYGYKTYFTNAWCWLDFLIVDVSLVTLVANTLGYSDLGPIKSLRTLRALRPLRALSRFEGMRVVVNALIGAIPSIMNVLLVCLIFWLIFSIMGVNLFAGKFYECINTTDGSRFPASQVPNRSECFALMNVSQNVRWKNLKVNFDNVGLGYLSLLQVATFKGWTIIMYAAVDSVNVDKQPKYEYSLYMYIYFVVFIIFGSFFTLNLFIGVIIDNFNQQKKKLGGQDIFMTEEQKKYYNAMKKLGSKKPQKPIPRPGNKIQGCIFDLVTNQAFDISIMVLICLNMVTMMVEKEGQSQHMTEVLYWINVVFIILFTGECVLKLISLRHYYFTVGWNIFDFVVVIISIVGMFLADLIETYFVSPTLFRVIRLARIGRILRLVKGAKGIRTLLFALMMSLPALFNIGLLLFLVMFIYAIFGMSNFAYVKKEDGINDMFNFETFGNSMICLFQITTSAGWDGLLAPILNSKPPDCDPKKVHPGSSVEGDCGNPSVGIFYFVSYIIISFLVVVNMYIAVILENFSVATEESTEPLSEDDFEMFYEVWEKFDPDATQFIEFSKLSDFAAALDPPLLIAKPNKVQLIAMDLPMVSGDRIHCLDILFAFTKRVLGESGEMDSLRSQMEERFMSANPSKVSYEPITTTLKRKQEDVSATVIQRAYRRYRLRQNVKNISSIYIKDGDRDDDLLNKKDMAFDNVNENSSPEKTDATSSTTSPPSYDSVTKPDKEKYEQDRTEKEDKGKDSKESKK
Target sequence in this assay (Q07699 whole entry partner, looked up): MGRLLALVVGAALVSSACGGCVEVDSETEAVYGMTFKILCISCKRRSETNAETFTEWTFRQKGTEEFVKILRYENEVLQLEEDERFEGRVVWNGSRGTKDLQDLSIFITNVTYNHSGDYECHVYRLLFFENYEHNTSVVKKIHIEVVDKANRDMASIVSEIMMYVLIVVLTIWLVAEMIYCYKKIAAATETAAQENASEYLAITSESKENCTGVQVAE

Structure (SMILES): CN(C)[C@H]1CC2C(C[C@@H]1Nc1cc(F)c(S(=O)(=O)Nc3nccs3)cc1Cl)C2(F)F (stereo in doubt) [Example 207, 5-Chloro-4-(((1S,3S,4S,6R)-4-(dimethylamino)-7,7-difluorobicyclo[4.1.0]heptan-3-yl)amino)-2-fluoro-N-(thiazol-2-yl)benzenesulfonamide]
- IC50 (hNav1.7 [1]): 203 nM
- IC50 (hNav1.7 [2]): 1600 nM

Structure (SMILES): CN(C)[C@@H]1CC2C(C[C@H]1Nc1cc(F)c(S(=O)(=O)Nc3nccs3)cc1Cl)C2(F)F (stereo in doubt) [Example 208, 5-Chloro-4-(((1R,3R,4R,6S)-4-(dimethylamino)-7,7-difluorobicyclo[4.1.0]heptan-3-yl)amino)-2-fluoro-N-(thiazol-2-yl)benzenesulfonamide]
- IC50 (hNav1.7 [1]): 6.12 nM
- IC50 (hNav1.7 [2]): 46.7 nM

Structure (SMILES): CN(C)[C@H]1CC2C(C[C@@H]1Nc1cc(F)c(S(=O)(=O)Nc3nccs3)cc1Cl)C2(F)F (stereo in doubt) [Example 209, 5-Chloro-4-(((1R,3S,4S,6S)-4-(dimethylamino)-7,7-difluorobicyclo[4.1.0]heptan-3-yl)amino)-2-fluoro-N-(thiazol-2-yl)benzenesulfonamide]
- IC50 (hNav1.7 [1]): 9.25 nM
- IC50 (hNav1.7 [2]): 160 nM

Structure (SMILES): CN(C)[C@@H]1CC2C(C[C@H]1Nc1cc(F)c(S(=O)(=O)Nc3nccs3)cc1Cl)C2(F)F (stereo in doubt) [Example 210, 5-Chloro-4-(((1S,3R,4R,6R)-4-(dimethylamino)-7,7-difluorobicyclo[4.1.0]heptan-3-yl)amino)-2-fluoro-N-(thiazol-2-yl)benzenesulfonamide]
- IC50 (hNav1.7 [1]): 415 nM
- IC50 (hNav1.7 [2]): 2000 nM

Structure (SMILES): CCN(C)[C@H]1CCCC[C@@H]1Nc1cc(F)c(S(=O)(=O)Nc2nc(C)cs2)cc1Cl [Example 102, 5-chloro-4-(((1S,2S)-2-(ethyl(methyl)amino)cyclohexyl)amino)-2-fluoro-N-(4-methylthiazol-2-yl)benzenesulfonamide formate]
- IC50 (hNav1.7 [1]): 66.5 nM
- IC50 (hNav1.7 [2]): 424 nM

Structure (SMILES): O=S(=O)(Nc1cccc(F)n1)c1cc(Cl)c(N[C@H]2CCCC[C@@H]2N2CC3CC3C2)cc1F (stereo partly drawn) [Example 105, 4-(((1S,2S)-2-(3-azabicyclo[3.1.0]hexan-3-yl)cyclohexyl)amino)-5-chloro-2-fluoro-N-(6-fluoropyridin-2-yl)benzenesulfonamide]
- IC50 (hNav1.7 [1]): 4.5 nM
- IC50 (hNav1.7 [2]): 31.3 nM

Structure (SMILES): O=S(=O)(Nc1cccc(F)n1)c1cc(Cl)c(N[C@@H]2CCCC[C@H]2N2CC3CC3C2)cc1F (stereo partly drawn) [Example 106, 4-(((1R,2R)-2-(3-azabicyclo[3.1.0]hexan-3-yl)cyclohexyl)amino)-5-chloro-2-fluoro-N-(6-fluoropyridin-2-yl)benzenesulfonamide]
- IC50 (hNav1.7 [1]): 74.9 nM
- IC50 (hNav1.7 [2]): 670 nM

Structure (SMILES): CN(C)[C@H]1CCCC[C@@H]1Nc1cc(F)c(S(=O)(=O)Nc2cccc(F)n2)cc1C1CC1 [Example 107, 5-cyclopropyl-4-(((1S,2S)-2-(dimethylamino)cyclohexyl)amino)-2-fluoro-N-(6-fluoropyridin-2-yl)benzenesulfonamide formate]
- IC50 (hNav1.7 [1]): 18 nM
- IC50 (hNav1.7 [2]): 137 nM

Structure (SMILES): O=S(=O)(Nc1ccncn1)c1cc(Cl)c(N[C@H]2CCCC[C@@H]2N2CCCCC2)cc1F [Example 108, 5-chloro-2-fluoro-4-(((1S,2S)-2-(piperidin-1-yl)cyclohexyl)amino)-N-(pyrimidin-4-yl)benzenesulfonamide]
- IC50 (hNav1.7 [1]): 22.6 nM
- IC50 (hNav1.7 [2]): 166 nM

Structure (SMILES): CN1CCC(N(C)[C@H]2CCCC[C@@H]2Nc2cc(F)c(S(=O)(=O)Nc3cccc(F)n3)cc2Cl)CC1 [Example 109, 5-chloro-2-fluoro-N-(6-fluoropyridin-2-yl)-4-(((1S,2S)-2-(methyl(1-methylpiperidin-4-yl)amino)cyclohexyl)amino)benzenesulfonamide]
- IC50 (hNav1.7 [1]): 8.68 nM
- IC50 (hNav1.7 [2]): 50.7 nM

Structure (SMILES): Cc1csc(NS(=O)(=O)c2cc(Cl)c(N[C@H]3CCCC[C@@H]3N(C)CCO)cc2F)n1 [Example 111, 5-chloro-2-fluoro-4-(((1S,2S)-2-((2-hydroxyethyl)(methyl)amino)cyclohexyl)amino)-N-(4-methylthiazol-2-yl)benzenesulfonamide]
- IC50 (hNav1.7 [1]): 23.4 nM
- IC50 (hNav1.7 [2]): 678 nM

Structure (SMILES): CN(C)[C@H]1C[C@@H](C(F)(F)F)CC[C@@H]1Nc1cc(F)c(S(=O)(=O)Nc2ccncn2)cc1Cl [Example 112, 5-chloro-4-(((1S,2S,4S)-2-(dimethylamino)-4-(trifluoromethyl)cyclohexyl)amino)-2-fluoro-N-(pyrimidin-4-yl)benzenesulfonamide]
- IC50 (hNav1.7 [1]): 15.1 nM
- IC50 (hNav1.7 [2]): 229 nM

Structure (SMILES): O=S(=O)(Nc1nccs1)c1cc(Cl)c(N[C@H]2CCCC[C@@H]2N2CCC(F)CC2)cc1F [Example 113, 5-chloro-2-fluoro-4-(((1S,2S)-2-(4-fluoropiperidin-1-yl)cyclohexyl)amino)-N-(thiazol-2-yl)benzenesulfonamide]
- IC50 (hNav1.7 [1]): 11.7 nM
- IC50 (hNav1.7 [2]): 185 nM

Structure (SMILES): CN(C)[C@H]1CCCC[C@@H]1Oc1cc(F)c(S(=O)(=O)Nc2cccc(F)n2)cc1C1CC1 [Example 114, 5-Cyclopropyl-4-(((1S,2S)-2-(dimethylamino)cyclohexyl)oxy)-2-fluoro-N-(6-fluoropyridin-2-yl)benzenesulfonamide formate]
- IC50 (hNav1.7 [1]): 33.1 nM
- IC50 (hNav1.7 [2]): 264 nM

Structure (SMILES): CN(CC(C)(C)O)[C@H]1CCCC[C@@H]1Nc1cc(F)c(S(=O)(=O)Nc2nccs2)cc1Cl [Example 116, 5-Chloro-2-fluoro-4-(((1S,2S)-2-((2-hydroxy-2-methylpropyl)(methyl)amino)cyclohexyl)amino)-N-(thiazol-2-yl)benzenesulfonamide formate]
- IC50 (hNav1.7 [1]): 18.2 nM
- IC50 (hNav1.7 [2]): 307 nM

Structure (SMILES): O=S(=O)(Nc1cccc(F)n1)c1cc(Cl)c(N[C@@H]2CCCC[C@H]2N2CCCCC2)cc1F [Example 117, 5-chloro-2-fluoro-N-(6-fluoropyridin-2-yl)-4-(((1R,2R)-2-(piperidin-1-yl)cyclohexyl)amino)benzenesulfonamide]
- IC50 (hNav1.7 [1]): 970 nM
- IC50 (hNav1.7 [2]): 2220 nM

Structure (SMILES): CN(CCCO)[C@H]1CCCC[C@@H]1Nc1cc(F)c(S(=O)(=O)Nc2cccc(F)n2)cc1Cl [Example 122, 5-chloro-2-fluoro-N-(6-fluoropyridin-2-yl)-4-(((1S,2S)-2-((3-hydroxypropyl)(methyl)amino)cyclohexyl)amino)benzenesulfonamide]
- IC50 (hNav1.7 [1]): 33.6 nM
- IC50 (hNav1.7 [2]): 205 nM

Structure (SMILES): O=S(=O)(Nc1cccc(F)n1)c1cc(Cl)c(N[C@H]2CCCC[C@@H]2N2CCCCC2)cc1F [Example 123, 5-chloro-2-fluoro-N-(6-fluoropyridin-2-yl)-4-(((1S,2S)-2-(piperidin-1-yl)cyclohexyl)amino)benzenesulfonamide]
- IC50 (hNav1.7 [1]): 4.54 nM
- IC50 (hNav1.7 [2]): 17.5 nM

Structure (SMILES): CN(CCC(C)(C)O)[C@H]1CCCC[C@@H]1Nc1cc(F)c(S(=O)(=O)Nc2cccc(F)n2)cc1Cl [Example 124, 5-chloro-2-fluoro-N-(6-fluoropyridin-2-yl)-4-(((1S,2S)-2-((3-hydroxy-3-methylbutyl)(methyl)amino)cyclohexyl)amino)benzenesulfonamide]
- IC50 (hNav1.7 [1]): 107 nM
- IC50 (hNav1.7 [2]): 1230 nM

Structure (SMILES): CN(CCC#N)[C@H]1CCCC[C@@H]1Nc1cc(F)c(S(=O)(=O)Nc2nccs2)cc1Cl [Example 125, 5-Chloro-4-(((1S,2S)-2-((2-cyanoethyl)(methyl)amino)cyclohexyl)amino)-2-fluoro-N-(thiazol-2-yl)benzenesulfonamide]
- IC50 (hNav1.7 [1]): 7.53 nM
- IC50 (hNav1.7 [2]): 204 nM
